Assay results taken from patent US9023789B2, “Amylin analogs and pharmaceutical compositions thereof” (Novo Nordisk A/S, priority 2012, dated 2015).
Values after ≈ are worked out from the molar mass of the structure shown. Like-named read-outs stand apart in the source and are kept apart here. Numbered stars: 1 amine (or outer) side, 2 acyl side, 3 side chain; on linkers, the order of the positions; unused ones are H or OH. Bridge positions count the residues as written; N and C are the ends. Side chains are listed from the residue outwards. Peptide text beside a SMILES is read from it. * marks the point of attachment. C20 diacid = O=C(O)CCCCCCCCCCCCCCCCCCC(=O)*; γGlu = O=C(O)[C@H](CCC(=O)[*:2])N[*:1]

Experiments:
[1] = target: T1, human amylin 3(a) receptor (human calcitonin receptor + RAMP-3) in BHK570 cells (Homo sapiens, UniProt O60896+P30988); assay: ASSAY (II)a functional assay, human amylin receptor (CRE luciferase); type: cell-based
T1 construct: expressed in transfected cells
Summary of the method: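 Ligand exposure 3 h at 37 °C, 5% CO2 in DMEM with 10% FBS, 10 mM Hepes pH 7.4. cAMP-driven luciferase read by luminescence after 30 min LucLite at room temperature.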

[2] = target: T2, human amylin receptor (membranes from Amylin 3(a)/CRE-luc cells) (Homo sapiens, UniProt O60896+P30988); assay: ASSAY (V) binding to the human amylin receptor (SPA, 125I-rat amylin);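 note: competition binding of cell membranes (35 ng/µL) mixed with SPA beads in 384-well plates at 40 µL total volume, read by scintillation counting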
T2 construct: expressed in transfected cells
T2 sequence (P30988 25-474): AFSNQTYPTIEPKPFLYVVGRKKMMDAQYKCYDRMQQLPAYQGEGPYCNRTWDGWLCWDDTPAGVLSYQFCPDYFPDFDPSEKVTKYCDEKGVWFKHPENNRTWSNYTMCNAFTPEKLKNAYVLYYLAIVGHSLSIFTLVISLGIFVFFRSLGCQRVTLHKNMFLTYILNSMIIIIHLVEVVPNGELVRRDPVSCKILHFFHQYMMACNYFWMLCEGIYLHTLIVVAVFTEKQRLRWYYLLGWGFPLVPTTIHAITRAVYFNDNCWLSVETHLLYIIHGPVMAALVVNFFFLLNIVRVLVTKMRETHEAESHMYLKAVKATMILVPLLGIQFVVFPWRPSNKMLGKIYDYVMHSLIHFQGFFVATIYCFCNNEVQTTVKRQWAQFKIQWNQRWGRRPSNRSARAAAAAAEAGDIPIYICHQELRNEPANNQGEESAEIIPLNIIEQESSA
T2 sequence (O60896 24-148 partner): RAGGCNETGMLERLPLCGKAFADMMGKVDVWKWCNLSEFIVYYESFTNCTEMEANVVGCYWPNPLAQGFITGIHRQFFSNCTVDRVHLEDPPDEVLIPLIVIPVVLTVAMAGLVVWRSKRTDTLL

[3] = ASSAY (IV) determination of solubility; type: physicochemical
Summary of the method: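 Polypeptide stock in water ([…]) was mixed 1:1 with 100 mM buffers: glycylglycine at pH 3.0, 4.0, 5.0 and bistrispropane at pH 6.0, 6.5, 7.0, 7.5, 8.0. After 18 hours at room temperature, samples were centrifuged and polypeptide concentration measured by UPLC.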

[4] = target: T3, rat amylin receptor (rat calcitonin receptor + rat RAMP 3) (Rattus norvegicus, UniProt P32214+Q9JJ73); assay: ASSAY (VI) binding to the rat amylin receptor; settings: for IC50: binding to rat amylin receptor, read-out: rAmylin-R bind IC50
T3 construct: expressed in transfected cells; host or cells: BHK tk'ts 13 (transient, FuGENE 6), membranes
T3 sequence (P32214 25-479 isoform P32214-2 limits assumed): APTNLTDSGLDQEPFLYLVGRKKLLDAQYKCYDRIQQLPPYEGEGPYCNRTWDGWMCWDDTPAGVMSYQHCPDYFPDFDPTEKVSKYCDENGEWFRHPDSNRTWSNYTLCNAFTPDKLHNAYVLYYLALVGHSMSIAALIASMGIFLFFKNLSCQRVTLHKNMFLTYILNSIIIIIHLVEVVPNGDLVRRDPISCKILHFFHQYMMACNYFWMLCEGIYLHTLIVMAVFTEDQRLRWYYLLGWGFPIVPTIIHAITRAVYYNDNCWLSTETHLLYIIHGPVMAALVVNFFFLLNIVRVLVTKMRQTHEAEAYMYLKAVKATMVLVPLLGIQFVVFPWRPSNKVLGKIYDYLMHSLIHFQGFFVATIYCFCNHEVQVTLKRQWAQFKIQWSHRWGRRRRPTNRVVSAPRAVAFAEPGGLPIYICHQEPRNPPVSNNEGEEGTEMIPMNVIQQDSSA
T3 sequence (Q9JJ73 23-147 partner): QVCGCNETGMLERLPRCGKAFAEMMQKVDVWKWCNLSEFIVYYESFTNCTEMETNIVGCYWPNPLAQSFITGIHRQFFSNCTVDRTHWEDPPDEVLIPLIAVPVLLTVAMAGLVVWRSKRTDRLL
Summary of the method: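 This assay measured binding to the rat amylin receptor. BHK tk′ts 13 cells were transiently transfected with the rat calcitonin receptor using FuGENE® 6 (Roche), following the manufacturer's recommendations. About 48 hours after transfection, the cells were harvested and membranes were prepared from them for the binding determination.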

rat calcitonin receptor = target: T4, rat calcitonin receptor (Rattus norvegicus, UniProt P32214); assay: ASSAY (VIII) binding to the rat calcitonin receptor; settings: Table 7, read-out: rCTR bind IC50
T4 construct: expressed in transfected cells; host or cells: BHK tk'ts 13 (transient, FuGENE 6), membranes
T4 sequence (P32214 25-479 isoform P32214-2 limits assumed): T3 sequence (P32214 25-479 isoform P32214-2 limits assumed)
Summary of the method: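 Transfect BHK tk′ts 13 cells transiently with rat calcitonin receptor, culture in DMEM containing 10% FBS, collect cells about 48 hours later, then prepare membranes.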

[5] = hCTR funct. EC50 divided by hAmylin-R funct. EC50
[6] = hCTR funct. EC50 over hAmylin-R funct. EC50
[7] = human functional selectivity: hCTR funct. EC50 / hAmylin-R funct. EC50
[8] = Table 5, selectivity, hCTR bind IC50 / hAmylin-R bind IC50
[9] = Table 5a, selectivity, hCTR bind IC50 / hAmylin-R bind IC50
[10] = Table 5b, selectivity, hCTR bind IC50 / hAmylin-R bind IC50
[11] = Table 5c, selectivity, hCTR bind IC50 / hAmylin-R bind IC50
[12] = Table 7, human binding selectivity, included for comparison
[13] = Table 7a (preferred compounds), human binding selectivity, included for comparison
[14] = ratio of human calcitonin receptor binding IC50 to human amylin receptor binding IC50
[15] = bistrispropane buffer, pH 6.5, read-out: Solubility pH 6.5 Concentration
[16] = bistrispropane buffer, pH 7.5, read-out: Solubility pH 7.5 Concentration
[17] = bistrispropane buffer, pH 6.0, read-out: Solubility pH 6.0 Concentration
[18] = bistrispropane buffer, pH 7.0, read-out: Solubility pH 7.0 Concentration
[19] = bistrispropane buffer, pH 8.0, read-out: Solubility pH 8.0 Concentration
[20] = glycylglycine buffer, pH 3.0, read-out: Solubility pH 3.0 Concentration
[21] = glycylglycine buffer, pH 4.0, read-out: Solubility pH 4.0 Concentration
[22] = glycylglycine buffer, pH 5.0, read-out: Solubility pH 5.0 Concentration
[23] = Table 7, rat binding selectivity, rCTR IC50 / rAmylin-R IC50
[24] = Table 7a (preferred compounds), rat binding selectivity, rCTR IC50 / rAmylin-R IC50
[25] = ratio of rCTR bind IC50 to rAmylin-R bind IC50

| Ratio hCT/hAmylin funct. [1, 5] | Ratio hCT/hAmylin funct. [1, 6] | Ratio hCT/hAmylin funct. [1, 7] | Ratio hCT/hAmylin binding [2, 8] | Ratio hCT/hAmylin binding [2, 9] | Ratio hCT/hAmylin binding [2, 10] | Ratio hCT/hAmylin binding [2, 11] | Ratio hCT/hAmylin binding [2, 12] | Ratio hCT/hAmylin binding [2, 13] | Ratio hCT/hAmylin binding [2, 14] | solubility at 18 h [3, 15] [µM] | solubility at 18 h [3, 16] [µM] | solubility at 18 h [3, 17] [µM] | solubility at 18 h [3, 18] [µM] | solubility at 18 h [3, 19] [µM] | solubility at 18 h [3, 20] [µM] | solubility at 18 h [3, 21] [µM] | solubility at 18 h [3, 22] [µM] | IC50 ([4]; Table 7) [µM] | Ratio rCT/rAmylin binding [4, 23] | SMILES | other results |
| --- | --- | --- | --- | --- | --- | --- | --- | --- | --- | --- | --- | --- | --- | --- | --- | --- | --- | --- | --- | --- | --- |
| 5.3 | 5.3 | 5.3 | 49.8 | 49.8 | 49.8 | 49.8 | 49.8 | 49.8 | 49.8 | ≥ 200 | ≥ 200 | ≥ 200 | ≥ 200 | ≥ 200 | ≥ 200 | ≥ 200 | ≥ 200 | 0.000324 | 98.5 | CC[C@H](C)[C@H](NC(=O)[C@H](C)NC(=O)CNC(=O)[C@H](Cc1ccccc1)NC(=O)[C@H](CC(N)=O)NC(=O)[C@@H]1CCCN1C(=O)[C@H](CO)NC(=O)[C@H](CO)NC(=O)[C@H](Cc1c[nH]cn1)NC(=O)[C@H](CCCNC(=N)N)NC(=O)[C@H](CC(C)C)NC(=O)[C@H](Cc1ccccc1)NC(=O)[C@H](CC(=O)O)NC(=O)[C@H](C)NC(=O)[C@H](CC(C)C)NC(=O)[C@H](CCCNC(=N)N)NC(=O)[C@H](CCC(N)=O)NC(=O)[C@@H](NC(=O)[C@H](C)NC(=O)[C@@H]1CSSC[C@H](NC(=O)[C@@H](N)CCCCNC(=O)CC[C@H](NC(=O)CC[C@H](NC(=O)CCCCCCCCCCCCCCCCCCC(=O)O)C(=O)O)C(=O)O)C(=O)N[C@@H](CC(N)=O)C(=O)N[C@@H]([C@@H](C)O)C(=O)N[C@@H](C)C(=O)N[C@@H]([C@@H](C)O)C(=O)N1)[C@@H](C)O)C(=O)N1CCC[C@H]1C(=O)N[C@@H](CO)C(=O)N[C@@H](CO)C(=O)N[C@H](C(=O)N[C@@H](CC(N)=O)C(=O)N[C@H](C(=O)NCC(=O)N1CCC[C@H]1C(=O)N[C@@H](CCC(=O)O)C(=O)N[C@H](C(=O)N[C@@H](Cc1ccc(O)cc1)C(N)=O)[C@@H](C)O)C(C)C)[C@@H](C)O [Example 122] (H-K([γGlu-γGlu-C20 diacid])CNTATCATQRLADFLRHSSPNFGAIPSSTNVGPETY-NH2; disulfide 2-7 (inferred); N-terminus assumed) | Ratio rCT/rAmylin binding [4, 24]: 98.5; Ratio rCT/rAmylin binding [4, 25]: 98.5; IC50 (rat calcitonin receptor): 0.0319 µM |
| 41.4 | 41.4 | 41.4 | 81.6 | 81.6 | 81.6 | 81.6 | 81.6 | 81.6 | 81.6 | ≥ 200 | 106 (≈ 483 µg/mL) | ≥ 200 | 155 (≈ 706 µg/mL) | 110 (≈ 501 µg/mL) | ≥ 200 | ≥ 200 | ≥ 200 | 0.000335 | 476.7 | CC[C@H](C)[C@H](NC(=O)[C@H](C)NC(=O)CNC(=O)[C@H](Cc1ccccc1)NC(=O)[C@H](CC(N)=O)NC(=O)[C@@H]1CCCN1C(=O)[C@H](CO)NC(=O)[C@H](CO)NC(=O)[C@H](Cc1c[nH]cn1)NC(=O)[C@H](CCCNC(=N)N)NC(=O)[C@H](CC(C)C)NC(=O)[C@H](Cc1ccccc1)NC(=O)[C@H](CC(=O)O)NC(=O)[C@H](C)NC(=O)[C@H](CC(C)C)NC(=O)[C@H](CCCNC(=N)N)NC(=O)[C@H](CCC(N)=O)NC(=O)[C@@H](NC(=O)[C@H](C)NC(=O)[C@@H]1CSSC[C@H](NC(=O)[C@@H](N)CCCCNC(=O)CC[C@H](NC(=O)CC[C@H](NC(=O)CCCCCCCCCCCCCCCCCCC(=O)O)C(=O)O)C(=O)O)C(=O)N[C@@H](CC(N)=O)C(=O)N[C@@H]([C@@H](C)O)C(=O)N[C@@H](C)C(=O)N[C@@H]([C@@H](C)O)C(=O)N1)[C@@H](C)O)C(=O)N1CCC[C@H]1C(=O)N[C@@H](CO)C(=O)N[C@@H](CO)C(=O)N[C@H](C(=O)N[C@@H](CC(N)=O)C(=O)N[C@H](C(=O)NCC(=O)N[C@@H](CO)C(=O)N[C@@H](CCCNC(=N)N)C(=O)N[C@H](C(=O)N[C@@H](Cc1ccc(O)cc1)C(N)=O)[C@@H](C)O)C(C)C)[C@@H](C)O [Example 52, N-ε-1-{(S)-4-carboxy-4-[(S)-4-carboxy-4-(19-carboxynonadecanoylamino)butyrylamino]butyryl}-[Asp14,Arg17,Pro21,Pro27,Arg35]-human amylin] | Ratio rCT/rAmylin binding [4, 24]: 476.7; Ratio rCT/rAmylin binding [4, 25]: 476.7; IC50 (rat calcitonin receptor): 0.159 µM |
